Publication PMC12059944, “Synthesis and Antileishmanial Evaluation of N-Phenyl-2-phenoxyacetamides Derived from Carvacrol” (ACS Omega, 2025)
pIC50: −log10 of the molar value. Where two headings read alike, the source gives them in different places.

Key:
[1] = Cytotoxicity assay in Vero cells (MTT); type: cell-based, African green monkey (Cercopithecus aethiops); conditions: African green monkey, Vero cells (ATCC CCL-81), pH 7.3, MTT, 1 × 10^4 cells per well, 500 to 7.8 μM
Procedure: (§1) The Vero cell (ATCC, CCL-81) was cultured in Dulbecco’s modified Eagle medium (DMEM), pH 7.3, supplemented with 10% FBS (v/v) and a penicillin/streptomycin solution (0.1 mg mL^–1/100 U mL^–1). The cells were incubated at 37 °C in a humidified atmosphere with 5% CO2. The MTT reduction assay (3-(4,5-dimethylthiazol-2-yl)-2,5-diphenyltetrazolium bromide) was adapted from Mosmann[43] to evaluate cytotoxicity. For this assay, 1 × 10^4 cells per well were seeded in 96-well plates and incubated overnight until reaching approximately 80% confluence. Wells were treated with different compound concentrations (500 to 7.8 μM) in triplicate. The culture medium was replaced with 0.5 mg mL^–1 MTT solution, and the plate was incubated for 3 h. The resulting formazan crystals were solubilized in DMSO, and absorbance was measured using a Spectramax spectrophotometer at a wavelength of 540 nm to assess cell viability.

Vero cells [2] = experiment: Cytotoxicity assay in Vero cells (MTT); type: cell-based, African green monkey (Cercopithecus aethiops)
Procedure: as §1

[3] = Cytotoxicity assay in macrophage RAW 264.7 (resazurin); type: cell-based; conditions: mouse, RAW 264.7 macrophages, pH 7.2; RAW 264.7 cells, 200 to 1.56 μM, 48 h treatment, resazurin
Procedure: (§2) RAW 264.7 cells were cultured in Roswell Park Memorial Institute (RPMI) medium, pH 7.2, supplemented with 10% (v/v) heat-inactivated fetal bovine serum (FBS) (Gibco), 100 μg mL^–1 penicillin (Sigma), 2 g L^–1 sodium bicarbonate, 2 mM L-glutamine, and 25 mM HEPES, and maintained at 37 °C in a humidified incubator with 5% CO2 atmosphere.[27] The cells were then seeded into sterile 96-well plates at a density of 5 × 10^4 cells/well, followed by the addition of the compounds at a concentration of 10 μM for screening, and in a range of 200 μM to 1.56 μM for the determination of the 50% cytotoxic concentration (CC50). Controls included 1% DMSO and amphotericin B at 3.125 μg mL^–1, with 48 h of treatment. Cell viability was assessed using 1 mM resazurin, with subsequent readings performed on a Spectramax spectrophotometer at wavelengths of 570 and 600 nm.

RAW 264.7 macrophages = experiment: as above; type: cell-based; conditions: RAW 264.7 cells, highest concentration (200 μM), 48 h
Procedure: as §2

[4] = test system: L. braziliensis MHOM/BR/75/M2904; experiment: In vitro infection of RAW 264.7 macrophages by L. braziliensis-GFP (leishmanicidal screening); type: cell-based; conditions: Leishmania braziliensis; for viability at 10 µM: RAW264.7, 48 h, read-out: parasite viability; for pIC50: RAW264.7, suggested from the 10 μM screening, L. braziliensis in RAW 264.7 macrophages, 48 h
Procedure: L. braziliensis MHOM/BR/75/M2904 was cultured in Grace’s insect medium (pH 6.5) supplemented with 10% (v/v) heat-inactivated fetal bovine serum (FBS) (Gibco), 100 μg mL^–1 penicillin (Sigma), and 2 mM L-glutamine, maintained at 25 °C in a B.O.D. incubator. Using the stationary phase culture on the seventh day, 2.0 × 10^6Leishmania/well were transferred to a 96-well plate containing 1.0 × 10^5 preadhered macrophages/well, following an adapted infection protocol.[44] After applying the compounds at a concentration of 10 μM, 1% DMSO and amphotericin B (3.125 μg mL^–1) were used as controls. Treatments were conducted for 48 h, followed by macrophage lysis using 0.1% SDS solution, which was subsequently neutralized with complete Grace’s medium. To recover promastigote forms, the plate was incubated for 5 days. Fluorescence was measured using a Spectramax fluorometer, with excitation at 490 nm and emission at 520 nm.

Vero cells [5] = test system: Vero cells; parameters: method as in earlier work; conditions: 15 μg mL^–1 (equivalent to 16.23 μM), neutral red cytotoxicity assay; cited from earlier work
[6] = test system: murine peritoneal macrophages; parameters: method as in PMID 36375398; conditions: cited from earlier work
human monocyte cell line = test system: human monocyte cell line; parameters: method as in PMID 32272211; conditions: 48 h treatment, cited from earlier work
L. amazonensis = test system: L. amazonensis; parameters: method as in PMID 32272211; conditions: L. amazonensis amastigote stage, 48 h treatment, cited from earlier work
Vero cells [7] = test system: Vero cells; parameters: method as in PMID 29877104; conditions: 5 × 10^4 cells per well, cited from earlier work
[8] = high concentrations (500 and 250 μM)
[9] = all tested concentrations (500 to 7.8 μM)
[10] = converted from μg mL^–1, read-out: CC50 (equivalent)

Row | SMILES | CC50 [1] [µM] | survival rate (Vero cells [2]; [8]) | CC50 at 48 h [3] [µM] | cell viability at the highest concentration compared to the control (RAW 264.7 macrophages) | survival rate (Vero cells [2]; [9]) | other results
1 | Cc1ccc(C(C)C)cc1OCC(=O)Nc1ccccc1Cl [Compound 1, N-(2-Chlorophenyl)-2-(5-isopropyl-2-methylphenoxy)acetamide] | 200 | below 50% | > 200 | no significant differences |  | 
2 | Cc1ccc(C(C)C)cc1OCC(=O)Nc1cccc(Cl)c1 [Compound 2, N-(3-Chlorophenyl)-2-(5-isopropyl-2-methylphenoxy)acetamide] |  |  | > 200 |  | above 50% | 
3 | Cc1ccc(C(C)C)cc1OCC(=O)Nc1ccc(Cl)cc1 [Compound 3, N-(4-Chlorophenyl)-2-(5-isopropyl-2-methylphenoxy)acetamide] | 449 | below 50% | > 200 |  |  | 
4 | Cc1ccc(C(C)C)cc1OCC(=O)Nc1ccccc1Br [Compound 4, N-(2-Bromophenyl)-2-(5-isopropyl-2-methylphenoxy)acetamide] | 372 | below 50% | > 200 |  |  | 
5 | Cc1ccc(C(C)C)cc1OCC(=O)Nc1cccc(Br)c1 [Compound 5, N-(3-Bromophenyl)-2-(5-isopropyl-2-methylphenoxy)acetamide] |  |  | > 200 | no significant differences | above 50% | viability at 10 µM [4]: ~50%; pIC50 [4]: ~5.00
6 | Cc1ccc(C(C)C)cc1OCC(=O)Nc1ccc(Br)cc1 [Compound 6, N-(4-Bromophenyl)-2-(5-isopropyl-2-methylphenoxy)acetamide] | 182 | below 50% | > 200 | no significant differences |  | 
7 | Cc1ccc(C(C)C)cc1OCC(=O)Nc1ccccc1F [Compound 7, N-(2-Fluorophenyl)-2-(5-isopropyl-2-methylphenoxy)acetamide] |  |  | > 200 | no significant differences | above 50% | viability at 10 µM [4]: ~50%; pIC50 [4]: ~5.00
8 | Cc1ccc(C(C)C)cc1OCC(=O)Nc1cccc(F)c1 [Compound 8, N-(3-Fluorophenyl)-2-(5-isopropyl-2-methylphenoxy)acetamide] | 337 | below 50% | > 200 |  |  | 
9 | Cc1ccc(C(C)C)cc1OCC(=O)Nc1ccc(F)cc1 [Compound 9, N-(4-Fluorophenyl)-2-(5-isopropyl-2-methylphenoxy)acetamide] |  |  | > 200 |  | above 50% | 
10 | Cc1ccc(C(C)C)cc1OCC(=O)Nc1ccccc1 [Compound 10, 2-(5-Isopropyl-2-methylphenoxy)-N-phenylacetamide] |  |  | > 200 |  | above 50% | 
11 | C[C@@H]1[C@H](O)[C@@H](C)/C=C/C=C/C=C/C=C/C=C/C=C/C=C/[C@H](O[C@@H]2O[C@H](C)[C@@H](O)[C@H](N)[C@@H]2O)C[C@@H]2O[C@](O)(C[C@@H](O)C[C@@H](O)[C@H](O)CC[C@@H](O)C[C@@H](O)CC(=O)O[C@H]1C)C[C@H](O)[C@H]2C(=O)O [amphotericin B] |  |  |  |  |  | toxicity (Vero cells [5]): over 70%
12 | Cc1ccc(C(C)C)cc1O [carvacrol] |  |  |  |  |  | CC50 ([6]; 24 h treatment, converted from μg mL^–1, read-out: CC50 (equivalent)): 505 µM; CC50 ([6]; 24 h treatment): 75.91 μg mL^–1; CC50 ([6]; 72 h treatment, converted from μg mL^–1, read-out: CC50 (equivalent)): 268 µM; CC50 ([6]; 72 h treatment): 40.23 μg mL^–1; CC50 (human monocyte cell line; [10]): 427 µM; CC50 (human monocyte cell line): 64.10 μg mL^–1; pIC50 (L. amazonensis; converted from μg mL^–1, read-out: IC50 (equivalent)): ~3.74; IC50 (L. amazonensis): approximately 27.40 μg mL^–1; CC50 (Vero cells [7]; [10]): 572 µM; CC50 (Vero cells [7]): 86 ± 1.41 μg mL^–1
